{
  "source": "patent US7770577B2",
  "about": "“Methods and devices for treating lung dysfunction” (priority 2001, dated 2010)",
  "key": {"[1]": {"system": "CF airway epithelial cell cultures", "test": "SCN− efflux in CF airway epithelial air-liquid interface cultures", "format": "cell-based, human", "details": "for effect on SCN^− efflux: CF cells", "protocol": "(§1) J. Respir. […] Experiments comparing non-CF and CF cells were performed with cultures grown simultaneously and matched in passage number, the number of cells plated, and days in culture. […] To initiate experiments, apical surfaces of the cultures were rapidly washed three times with Dulbecco's PBS (50 μl for 6.5 mm filters or 500 μl for 24 mm filters) containing 100 μM amiloride. Following a third wash, additional aliquots were placed on the apical surface for sequential 2 min incubations at 37° C. in humidified 5% CO2.\n(§2) Bronchial epithelial cells were obtained from either CF or non-CF lungs at the time of transplant or organ donation. Cells were passaged twice (thereby de-differentiated) and then cultured at an air-liquid interface for re-differentiation. […] J. Respir. […] Following three rapid PBS washes of the apical surface, additional PBS aliquots were placed on the apical surface for sequential 2 min incubations. […] Airway epithelial cell cultures from three separate CF patients were compared to three non-CF control cultures."}, "human airway epithelia": {"system": "human airway epithelia", "test": "Apical H2O2 production by airway epithelial ALI cultures (fluorometric horseradish peroxidase micro-assay)", "format": "cell-based", "protocol": "Reverse transcription-polymerase chain reaction (RT-PCR) was performed with primers designed to detect any mammalian NADPH oxidase capable of producing H2O2 through superoxide intermediate.\nSince the predicted molecular structure of Duox1 and 2 identified an intracellular loop containing 2 EF-hand calcium-binding motifs, the Ca^2+ stimulated H2O2 production was assessed. ALI cultures were stimulated for one hour with Thapsigargin (1 μM), an inhibitor of the endoplasmic reticulum calcium ATPase pump that increases intracellular Ca^2+. […] In this assay, the cells were incubated for one hour with either DPI alone or in combination with thapsigargin (1 μM)."}, "[2]": {"system": "Pseudomonas aeruginosa (ATCC 27853)", "test": "Antibacterial assay of LPO system components in PBS pH 5.7 (control experiments)", "format": "cell-based", "details": "1.125 μg/ml LPO, 10^−5 M H2O2 or 5×10^−4 M SCN− added singly or in pairs", "protocol": "(§3) Bacteria were collected in the stationary phase of growth and further diluted in LB broth to 5-6×10^4/ml. After adding glycerol to 15%, aliquots of bacteria were stored at −80° C.\n(§4) Cultures of non-CF and CF airway epithelial cells were matched with regard to passage number, days in culture, and days at the air liquid interface. At least 24 h prior to the experiments, basolateral media of some cultures were supplemented with 100 μM KSCN. The apical surfaces of the cultures were washed with 0.25 ml PBS and the washes were pooled and stored at −20° C. […] Control experiments were performed using only PBS adjusted to pH 5.7. […] Mixtures were sampled immediately and 4 h after incubation at room temperature and CFU were determined by plating on LB Agar. Antibacterial activity was expressed as a ratio of CFU after 4 h to the starting CFU in the sample to control for slight differences in the starting number of bacteria."}, "[3]": {"system": "Pseudomonas aeruginosa (ATCC 27853)", "test": "LPO-dependent antibacterial activity of human airway secretions", "format": "cell-based", "protocol": "Human airway secretions were obtained from intubated patients undergoing ambulatory outpatient elective surgery according to IRB approved protocols. Patients were selected for not having respiratory disease. Saline (3 ml) was injected into the tracheal tube and immediately suctioned into a trap. Recovered secretions were spun at 16,000 rpm for 20 min. at 4° C. The supernatant was aliquoted and stored at −80° C. for later analysis. Undiluted secretions were obtained from acutely (<24 h) intubated patients in the medical ICU who were intubated for reasons other than respiratory disease. Selected patients had no clinical signs of respiratory infection. Secretions were cleared by centrifugation (100,000×g, 30 min), aliquoted, and stored at −80° C.\nas §3, §4\nIt is unlikely that H2O2 would continue to be produced in secretions after collection since its source is thought to be cellular in origin. For this reason, secretions were supplemented with 10^−5 M H2O2."}, "P. aeruginosa [4]": {"system": "P. aeruginosa", "protocol": "as §3, §4"}, "P. aeruginosa [5]": {"system": "P. aeruginosa", "test": "LPO dependent killing with bovine milk LPO at pH 5.7, 6.2 and 6.8", "format": "cell-based, Pseudomonas aeruginosa", "details": "dapsone 10^−3 M; salicyl hydroxamic acid 10^−4 M", "excerpt": "(§5) Concentrations of the LPO system components were selected to be within the measured ranges in human airways."}, "Burkholderia cepacia": {"system": "Burkholderia cepacia", "test": "LPO dependent killing with bovine milk LPO at pH 5.7, 6.2 and 6.8", "format": "cell-based", "details": "dapsone 10^−3 M; salicyl hydroxamic acid 10^−4 M", "excerpt": "as §5"}, "[6]": {"system": "non-CF airway epithelial cell cultures", "test": "SCN− efflux / apical accumulation in non-CF airway epithelial air-liquid interface cultures", "format": "cell-based, human", "protocol": "as §1, §2"}, "[7]": {"details": "cited from earlier work"}, "[8]": {"details": "PBS pH 5.7, 4 h room temperature, H2O2 10^−5 M or dapsone 10^−3 M, mean±SE, n=6"}, "[9]": {"details": "long-term daily aerosol administration"}},
  "note": "Like-named read-outs stand apart in the source and are kept apart here.",
  "data": [
    {"molecule": "O=S(=O)(O)c1cc(N=C=S)ccc1C=Cc1ccc(N=C=S)cc1S(=O)(=O)O", "note": "[DIDS, 4,4′-diisothiocyanostilbene-2,2′disulphonic acid]", "values": [
      {"measurement": "effect on SCN^− efflux", "setting": "[1]", "value": "neither glibenclamide nor DIDS had any effect"}
    ]},
    {"molecule": "c1ccc2c(c1)[I+]c1ccccc1-2", "note": "[DPI, Diphenyleneiodonium]", "values": [
      {"measurement": "apical H2O2 production", "setting": "human airway epithelia; 1 μM DPI in combination with thapsigargin (1 μM), one hour", "value": "45±19", "unit": "H2O2 pmoles/hr"}
    ]},
    {"molecule": "OO", "note": "[H2O2, hydrogen peroxide]", "values": [
      {"measurement": "growth of bacteria", "setting": "[2]", "value": "not affected"},
      {"measurement": "cell growth (ratio of CFU after 4 h to starting CFU)", "setting": "[3]; [8]", "value": "1.9±0.3"},
      {"measurement": "cell growth (ratio of CFU after 4 h to starting CFU)", "setting": "[3]; bacteria in airway secretions of six patients in presence of 10^−5 M H2O2, n=6", "value": "0.98±0.16"},
      {"measurement": "antibacterial activity in culture washes", "setting": "P. aeruginosa [4]; H2O2 10^−5 M alone or with LPO, washes from cells cultured without basolateral SCN−", "value": "did not alone or with LPO, give rise to any antibacterial activity"}
    ]},
    {"molecule": "N#CS", "note": "[SCN^−, thiocyanate]", "values": [
      {"measurement": "growth of bacteria", "setting": "[2]", "value": "not affected"},
      {"measurement": "antibacterial activity in culture washes", "setting": "P. aeruginosa [4]; LPO/H2O2 supplemented washes from CF cultures grown with basolateral SCN− (100 μM)", "value": "no detectable LPO-dependent effect"},
      {"measurement": "antibacterial activity in culture washes", "setting": "P. aeruginosa [4]; LPO/H2O2 supplemented washes from non-CF cultures grown with basolateral SCN− (100 μM)", "value": "LPO-dependent killing of bacteria"},
      {"measurement": "antibacterial activity in culture washes", "setting": "P. aeruginosa [4]; exogenous SCN− (0.5 mM) added to CF culture washes", "value": "generated antibacterial activity"},
      {"measurement": "antibacterial activity in culture washes", "setting": "P. aeruginosa [4]; exogenous SCN− (0.5 mM) added to non-CF culture washes", "value": "increased the LPO dependent activity"}
    ]},
    {"molecule": "Nc1ccc(S(=O)(=O)c2ccc(N)cc2)cc1", "note": "[dapsone]", "values": [
      {"measurement": "cell growth (ratio of CFU after 4 h to starting CFU)", "setting": "[3]; [8]", "value": "1.9±0.3"},
      {"measurement": "cell growth (ratio of CFU after 4 h to starting CFU)", "setting": "[3]; airway secretions with 10^−5 M H2O2 plus dapsone, n=6, p<0.05 vs no dapsone", "value": "1.68±0.31"},
      {"measurement": "effect of peroxidase inhibitor on LPO system antibacterial activity", "setting": "P. aeruginosa [5]", "value": "inhibited"},
      {"measurement": "effect of peroxidase inhibitor on LPO system antibacterial activity", "setting": "Burkholderia cepacia", "value": "inhibited"}
    ]},
    {"molecule": "CCCC(=O)Nc1ncnc2c1ncn2[C@@H]1O[C@@H]2COP(=O)(O)O[C@H]2[C@H]1OC(=O)CCC", "note": "[dibutryl cAMP]", "values": [
      {"measurement": "SCN^− efflux after stimulation of PKA", "setting": "[6]; non-CF cultures, dibutryl cAMP (0.5 mM) and forskolin (10 μM) together", "value": "increase in efflux"},
      {"measurement": "SCN^− efflux after stimulation of PKA", "setting": "[1]; CF cultures, dibutryl cAMP (0.5 mM) and forskolin (10 μM) together", "value": "did not"}
    ]},
    {"molecule": "COc1ccc(Cl)cc1C(=O)NCCc1ccc(S(=O)(=O)NC(=O)NC2CCCCC2)cc1", "note": "[glibenclamide]", "values": [
      {"measurement": "reversibility of inhibition of SCN^− efflux", "setting": "[6]; non-CF cells", "value": "reversible"},
      {"measurement": "block of PKA-stimulated and baseline SCN^− efflux", "setting": "[6]; non-CF cells, glibenclamide 500 μM", "value": "blocked"},
      {"measurement": "effect on SCN^− efflux", "setting": "[1]", "value": "neither glibenclamide nor DIDS had any effect"}
    ]},
    {"molecule": "CC(C)Cc1ccc(C(C)C(=O)O)cc1", "note": "(stereo not drawn) [ibuprofen]", "values": [
      {"measurement": "rate of lung inflammation", "setting": "[7]; children with CF, four-year study, high doses", "value": "reduced the rate of lung inflammation"}
    ]},
    {"molecule": "C/C=C(/C)C(=O)O[C@H]1C(C)=C2[C@H]([C@@H]1OC(=O)CCCCCCC)[C@@](C)(OC(C)=O)C[C@H](OC(=O)CCC)[C@@]1(O)[C@H]2OC(=O)[C@@]1(C)O", "note": "[thapsigargin, Thapsigargin]", "values": [
      {"measurement": "apical H2O2 produced", "setting": "human airway epithelia; ALI cultures stimulated one hour with thapsigargin 1 μM (baseline 59±16)", "value": "128±17", "unit": "H2O2 pmoles/hr"}
    ]},
    {"molecule": "lactoperoxidase [LPO]", "values": [
      {"measurement": "growth of bacteria", "setting": "[2]", "value": "not affected"}
    ]},
    {"molecule": "Pulmozyme®: mucus-thinning drug, a DNAse (recombinant human deoxyribonuclease) (protein, UniProt P24855 23-282, looked up) Deoxyribonuclease-1: LKIAAFNIQTFGETKMSNATLVSYIVQILSRYDIALVQEVRDSHLTAVGKLLDNLNQDAPDTYHYVVSEPLGRNSYKERYLFVYRPDQVSAVDSYYYDDGCEPCGNDTFNREPAIVRFFSRFTEVREFAIVPLHAAPGDAVAEIDALYDVYLDVQEKWGLEDVMLMGDFNAGCSYVRPSQWSSIRLWTSPTFQWLIPDSADTTATPTHCAYDRIVVAGMLLRGAVVPDSALPFNFQAAYGLSDQLAQAISDHYPVEVMLK", "values": [
      {"measurement": "lung function", "setting": "[7]; clinical trials, people with CF", "value": "improved lung function"},
      {"measurement": "number of respiratory infections", "setting": "[7]; clinical trials", "value": "reduced the number of respiratory infections"},
      {"measurement": "frequency of severe respiratory tract exacerbations", "setting": "[7]; [9]", "value": "decrease the frequency of severe respiratory tract exacerbations"},
      {"measurement": "rate of decline in pulmonary function", "setting": "[7]; [9]", "value": "slow the rate of decline in pulmonary function"}
    ]}
  ]
}
